Columns and labels:
MIN6B1 cell = assay: Assay for promoting activity on insulin secretion; type: cell-based, mouse; settings: 10 μM test compound, KRB-HEPES with 16.8 mM glucose, 37° C., 22 minutes; relative to DMSO = 100%
Experimental: (1) Assay for Promoting Activity on Insulin Secretion
In this assay, promoting activities on insulin secretion of the test compounds were studied using MIN6B1 cell, which was a strain of mouse pancreatic β-cells, and glibenclamide, which was a commercially available insulin secretagogue, as a reference compound. The assay procedure is given below.
MIN6B1 cells were seeded on a 48-well plate at a concentration of 1×10^5 cells/well (0.25 ml) (The medium was prepared by adding FCS (fetal calf serum) to DMEM (Dulbecco's Modified Eagle Medium) containing 25 mM glucose such that the FCS concentration became 10%). After two days, the medium was suctioned by an aspirator, each well washed four times with 0.2 ml of KRE-HEPES buffer [Kregs-Ringer-bicarbonate-N-2-hydroxyethylpiperazine-N′-2-ethanesulfonic acid; 130 mM NaCl, 4.7 mM KCl, 1.2 mM KH2PO4, 1.2 mM MgCl2.6H2O, 0.25 mM CaCl2.2H2O, 2.5 mM NaHCO3, 0.5% BSA, and 10 mM N-2-hydroxyethylpiperazine-N′-2-ethanesulfonic acid (pH 7.4)] containing 2.8 mM glucose warmed to 37° C., 0.2 ml of said buffer was again added, and the cells were incubated at 37° C. for 30 to 60 minutes. […] The samples were pipetted and diluted by 25 to 51 times, and the insulin concentrations were analyzed using an insulin assay kit (Rat Insulin [^125I] Biotrak Assay System with Magnetic Separation; Amersham BioScience K.K.). […]

ICR mice = assay: Oral glucose tolerance test on normal mouse; type: in vivo; settings: at 30 minutes after glucose loading, relative to control group
Experimental: (2) Oral Glucose Tolerance Test on Normal Mouse
In this assay, preventive activities of test compounds against hyperglycemia following glucose loading were examined using normal mice and nateglinide, a commercially available oral anti-hyperglycemic agent, as a reference compound. The assay procedure is given below.
ICR mice (male, 6 weeks old) that had been preliminary bred for one week were fasted for 18 to 20 hours to use as test animals. Each test compound was dissolved in 0.5% methylcellulose solution and orally administered at 3 mg/kg (10 mg/kg for nateglinide) before glucose loading. Timing to administer the test compound was selected to be optimal for each test compound, which was 10 minutes before glucose loading for the compounds of the present invention or 30 minutes before glucose loading for nateglinide, which was a reference compound. The hypoglycemic rate (%) at 30 minutes after glucose loading was measured relative to the control group.

SMILES: COc1ccc(Cl)cc1C(=O)NCCc1ccc(S(=O)(=O)NC(=O)NC2CCCCC2)cc1 [Glibenclamide, glibenclamide]
- Promotion activity on insulin secretion, % (MIN6B1 cell): 122%

SMILES: CC(C)[C@H]1CC[C@H](C(=O)N[C@H](Cc2ccccc2)C(=O)O)CC1 [Nateglinide, nateglinide]
- Hypoglycemic rate, % (ICR mice; 10 mg/kg orally, 30 minutes before glucose loading): 26%

SMILES: Fc1cc(-c2nc(N3CCSC3)c3sccc3n2)c(F)cc1Cl [Example 99]
- Hypoglycemic rate, % (ICR mice; 3 mg/kg orally, 10 minutes before glucose loading): 36%

Source: patent publication US7557112B2, “Aromatic-ring-fused pyrimidine derivative” (Astellas Pharma Inc., priority 2004, dated 2009)
